The record followed here is US20220079889A1, “USE OF CANNABANOIDS IN THE TREATMENT OF PROLIFERATIVE DIABETIC RETINOPATHY” (VERDANT PHARMACEUTICALS, LLC, priority 2020, published 2022).

Assay [1] concerns IL-1β-induced corneal lymphangiogenesis. As to the kind of experiment: IL-1β-induced corneal lymphangiogenesis (anti-LYVE-1 stain). In kind it is in vivo, BALB/c mice. Particulars: 0.3 mg/kg daily i.p. As for the experimental part: BALB/c mice were anesthetized by intraperitoneal (i.p.) injection of pentobarbital sodium (60 mg/kg). Hydron pellets (0.3 μl) containing 30 ng mouse IL-1β (401-ML, R&D Systems) were prepared and implanted into the corneas. Pellets were positioned 1 mm from the corneal limbus. Implanted eyes were treated with Bacitracin ophthalmic ointment (E. Fougera & Co.) to prevent infection.
To block CB, mice received daily i.p. injections of a specific CBD. Compound II (R-tech Ueno Ltd., Tokyo, Japan) as described above. A daily dose of 0.3 mg/kg was administered at day 0 and continued until the sixth day after implantation. Two, four and six days after implantation, digital images of the corneal vessels were obtained and recorded using OpenLab software version 2.2.5 (Improvision Inc.) with standardized illumination and contrast and were saved onto disks. The quantitative analysis of new vessel growth in the mouse corneas was performed using Scion Image software (version 4.0.2, Scion Corp.).
Eyes were enucleated and fixed with 4% paraformaldehyde for one hour at 4° C. For whole-mount preparation, the corneas were exposed by removing other portions of the eye (i.e iris, sclera, retina, and conjunctiva). […]

Assay [2] relates to TNF-α. As to the kind of experiment: ELISA of RPE-choroid complex after laser injury: TNF-α. It is filed as in vivo, rat. To be noted: laser-treated animals, 3 days after laser injury; 0.3 mg/kg BW daily i.p. As for the experimental part:
(§1) To block CB, a specific CBD, Compound 11 described above, was used (R-tech Ueno, Ltd., Tokyo, Japan). After laser injury, the inhibitor (0.3 mg/kg BW) was administered to the animals by daily i.p. injections. As a control, some animals received the same regimen for the vehicle solution alone.
(§2) The RPE-choroid complex was carefully isolated from eyes 3 days after photocoagulation and placed in 300 μl of lysis buffer supplemented with protease inhibitors and sonicated. The lysate was centrifuged at 15,000 rpm for 15 minutes at 4° C. and the levels of TNF-α, monocyte chemotactic protein (MCP)-1, and intercellular adhesion molecule (ICAM)-1 were determined with rat TNF-α (BI) bioscience), MCP-1 (BD bioscience) and ICAM-1 (R&D Systems, Minneapolis, Minn.) enzyme-linked immunosorbent assay (ELISA) kits according to the manufacturers' protocols. Total protein concentration was determined using a Bio-Rad Protein Assay Kit (Bio-Rad Laboratories Hercules, Calif.) and dilutions of bovine serum albumin (Bio-Rad Laboratories) as standards.

Assay [3] concerns ICAM-1. As to the kind of experiment: ELISA of RPE-choroid complex after laser injury: ICAM-1. It is filed as in vivo, rat. Particulars: laser-treated animals, 3 days after laser injury; 0.3 mg/kg BW daily i.p. As for the experimental part:
as §1, §2

As to `CC(=O)Nc1nc(CCc2ccc(NC(=N)NN)cc2)c(Cc2ccc(S(C)(=O)=O)cc2)s1` [Compound II], the “effect on corneal lymphangiogenesis (in words)” value in assay [1] is “effectively suppresses corneal lymphangiogenesis”. The “protein level of TNF-α in the RPE-choroid complex” value in assay [2] is 360 ± 12 pg/mg. For the same molecule, the “protein level of ICAM-1 in the RPE-choroid complex” value in assay [3] is 57 ± 2 ng/mg.
